Counter-ions that a name gives are not always drawn.
Columns and labels:
K562/A02 [1] = test: Cytotoxicity against human K562/A02 cells over expressing P-gp at 20 uM incubated for 72 hrs by CCK-8 assay; type: toxicity, cell-based; conditions: k562/a02, 72 h
K562/A02 [2] = test: Reversal of multi-drug resistance in human K562/A02 cells assessed as decrease in adriamycin IC50 preincubated with compound followed by ADR addition for 48 hrs; type: functional, cell-based
K562/A02 [3] = test: Antiproliferative activity against human K562/A02 cells assessed as reduction in cell viability incubated for 72 hrs by CCK-8 assay; type: functional, cell-based; conditions: K562/A02, 72 h
K562/A02 [4] = test: Effect on P-glycoprotein expression at protein level in human K562/A02 cells at 0.5 to 8.0 uM incubated for 24 hrs by Western blot analysis; type: functional, cell-based; conditions: dose 0.5-8 µM
[5] = molecular target: T1, ATP-dependent translocase ABCB1 (Homo sapiens, UniProt P08183); test: Inhibition of P-glycoprotein in human K562/A02 cells assessed as accumulation of rhodamine incubated for 4 hrs by flow cytometric analysis; type: cell-based; conditions: k562/a02, 4 h, at 0.5 to 8 µM, dose 0.5-8 µM
K562/A02 [6] = test: Effect on P-glycoprotein expression at mRNA level in human K562/A02 cells at 0.5 to 8.0 uM by q-PCR analysis; type: functional, cell-based; conditions: dose 0.5-8 µM
[7] = molecular target: T1, ATP-dependent translocase ABCB1; test: Induction of thermal stabilization of P-glycoprotein in human K562/A02 cells at 50 uM under 25 to 61 degreeC incubated for 1 hrs by CETSA based Western blot analysis; type: cell-based; conditions: k562/a02, 1 h

T1 sequence (P08183 whole entry): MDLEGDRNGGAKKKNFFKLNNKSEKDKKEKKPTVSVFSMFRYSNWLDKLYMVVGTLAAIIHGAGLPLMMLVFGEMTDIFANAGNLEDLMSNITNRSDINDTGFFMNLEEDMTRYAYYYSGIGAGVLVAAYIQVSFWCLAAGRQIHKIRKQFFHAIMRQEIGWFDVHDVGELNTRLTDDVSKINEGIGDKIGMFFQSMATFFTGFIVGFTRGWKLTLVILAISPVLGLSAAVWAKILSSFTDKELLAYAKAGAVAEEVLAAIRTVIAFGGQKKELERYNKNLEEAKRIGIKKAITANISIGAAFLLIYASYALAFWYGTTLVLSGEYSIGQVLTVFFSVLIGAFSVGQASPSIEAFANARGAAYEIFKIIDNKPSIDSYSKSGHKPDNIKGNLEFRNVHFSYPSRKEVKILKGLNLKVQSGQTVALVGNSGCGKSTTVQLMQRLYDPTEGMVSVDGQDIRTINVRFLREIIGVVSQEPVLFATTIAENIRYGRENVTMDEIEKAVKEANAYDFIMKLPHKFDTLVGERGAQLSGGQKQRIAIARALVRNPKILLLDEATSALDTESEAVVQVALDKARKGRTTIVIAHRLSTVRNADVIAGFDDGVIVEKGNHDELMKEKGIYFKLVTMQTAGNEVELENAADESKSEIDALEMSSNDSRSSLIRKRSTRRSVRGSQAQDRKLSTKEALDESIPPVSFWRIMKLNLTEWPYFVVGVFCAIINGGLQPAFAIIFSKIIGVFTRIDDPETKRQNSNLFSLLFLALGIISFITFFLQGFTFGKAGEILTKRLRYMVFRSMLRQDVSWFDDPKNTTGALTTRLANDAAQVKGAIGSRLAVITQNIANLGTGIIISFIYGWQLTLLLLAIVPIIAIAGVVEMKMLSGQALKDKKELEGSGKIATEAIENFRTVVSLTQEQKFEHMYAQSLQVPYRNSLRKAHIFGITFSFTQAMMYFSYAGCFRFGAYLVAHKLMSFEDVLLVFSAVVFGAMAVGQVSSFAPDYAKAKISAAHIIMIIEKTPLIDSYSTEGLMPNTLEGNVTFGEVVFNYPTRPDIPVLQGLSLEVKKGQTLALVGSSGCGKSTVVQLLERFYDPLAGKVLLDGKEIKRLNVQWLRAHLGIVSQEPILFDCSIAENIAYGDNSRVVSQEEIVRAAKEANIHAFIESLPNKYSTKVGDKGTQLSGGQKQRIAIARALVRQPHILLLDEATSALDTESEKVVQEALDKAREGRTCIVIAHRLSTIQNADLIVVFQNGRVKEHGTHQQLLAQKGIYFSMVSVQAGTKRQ

SMILES | Activity (K562/A02 [1]) | also measured
COc1cc2c(cc1OC)CN(CCc1ccc(/N=N/c3ccccc3NC(=O)c3ccccc3)cc1)CC2 | Non-toxic | 
COc1ccc(C(=O)Nc2ccccc2C(=O)Nc2ccc(CCN3CCc4cc(OC)c(OC)cc4C3)cc2)cc1OC |  | EC50 (K562/A02 [2]): 29.4 nM
COc1cc2c(cc1OC)CN(CCc1ccc(/N=N/c3ccccc3NC(=O)c3ccc(Cl)c(Cl)c3)cc1)CC2 | Non-toxic | 
COc1ccc(C(=O)Nc2ccccc2/N=N/c2ccc(CCN3CCc4cc(OC)c(OC)cc4C3)cc2)cc1OC | Non-toxic | 
COc1cc2c(cc1OC)CN(CCc1ccc(NC(=O)c3ccccc3/N=N/c3ccc(C)cc3)cc1)CC2 | Non-toxic | 
COc1cc2c(cc1OC)CN(CCc1ccc(/N=N/c3ccccc3NC(=O)c3cccc([N+](=O)[O-])c3)cc1)CC2 | Non-toxic | 
COc1cc2c(cc1OC)CN(CCc1ccc(/N=N/c3ccccc3NC(=O)c3ccc(C)cc3)cc1)CC2 | Non-toxic | 
COc1cc2c(cc1OC)CN(CCc1ccc(/N=N/c3ccccc3NC(=O)c3ccc(C)c(C)c3)cc1)CC2 | Non-toxic | 
COc1ccc(C(=O)Nc2ccccc2/N=N/c2ccc(CCN3CCc4cc(OC)c(OC)cc4C3)cc2)cc1 | Non-toxic | 
COc1cccc(C(=O)Nc2ccccc2/N=N/c2ccc(CCN3CCc4cc(OC)c(OC)cc4C3)cc2)c1 | Non-toxic | 
COc1cc2c(cc1OC)CN(CCc1ccc(/N=N/c3ccccc3NC(=O)c3ccccc3Cl)cc1)CC2 | Non-toxic | 
COc1cc2c(cc1OC)CN(CCc1ccc(/N=N/c3ccccc3NC(=O)c3cccc(Cl)c3)cc1)CC2 | Non-toxic | 
COc1cc2c(cc1OC)CN(CCc1ccc(/N=N/c3ccccc3NC(=O)c3ccc(Cl)cc3)cc1)CC2 | Non-toxic | 
COc1cc2c(cc1OC)CN(CCc1ccc(/N=N/c3ccccc3NC(=O)c3cc(OC)c(OC)c(OC)c3)cc1)CC2 | Non-toxic | 
COc1cc2c(cc1OC)CN(CCc1ccc(/N=N/c3ccccc3NC(=O)c3ccccc3[N+](=O)[O-])cc1)CC2 | Non-toxic | 
COc1cc2c(cc1OC)CN(CCc1ccc(/N=N/c3ccccc3NC(=O)c3ccc(F)c(F)c3)cc1)CC2 | Non-toxic | 
COc1cc2c(cc1OC)CN(CCc1ccc(/N=N/c3ccccc3NC(=O)c3ccc(C(C)(C)C)cc3)cc1)CC2 | Non-toxic | 
COc1cc2c(cc1OC)CN(CCc1ccc(NC(=O)c3ccccc3/N=N/c3cccc(Cl)c3)cc1)CC2 | Non-toxic | 
COc1cc2c(cc1OC)CN(CCc1ccc(NC(=O)c3ccccc3/N=N/c3ccccc3)cc1)CC2 | Non-toxic | 
COc1cc2c(cc1OC)CN(CCc1ccc(/N=N/c3ccccc3NC(=O)c3ccc([N+](=O)[O-])cc3)cc1)CC2 | Non-toxic | 
COc1cc2c(cc1OC)CN(CCc1ccc(NC(=O)c3ccccc3/N=N/c3ccc(Cl)cc3)cc1)CC2 | Non-toxic | 
COc1ccccc1/N=N/c1ccccc1C(=O)Nc1ccc(CCN2CCc3cc(OC)c(OC)cc3C2)cc1 | Non-toxic | 
COc1cccc2c1C(=O)c1c(O)c3c(c(O)c1C2=O)C[C@@](O)(C(=O)CO)C[C@@H]3O[C@H]1C[C@H](N)[C@H](O)[C@H](C)O1 [DOXORUBICIN HYDROCHLORIDE] |  | IC50 (K562/A02 [3]): 2160 nM
COc1cc2c(cc1OC)CN(CCc1ccc(/N=N/c3ccccc3NC(=O)c3ccccc3OC)cc1)CC2 | Non-toxic | Activity (K562/A02 [4]): Active; Little Effect Of Compound Observed; inhibition (INH) [5]: Dose-dependent-effect; Activity (K562/A02 [6]): Active; Little Effect Of Compound Observed; EC50 (K562/A02 [2]): 120 nM; Activity [7]: Active

— ChEMBL document CHEMBL6092160, “Discovery of novel third generation P-glycoprotein inhibitors bearing an azo moiety with MDR-reversing effect” (Eur J Med Chem, 2024)
